According to patent US20250241879A1, “CAPSAICIN SEQUENTIAL DOSING METHOD FOR TREATMENT OF KNEE JOINT PAIN” (priority 2018, published 2025):

Experiments:
[1] = system: human patients with bilateral knee osteoarthritis; test: Procedure pain (NPRS) due to intraarticular trans-capsaicin, Breg pad vs ice pack cooling (Example 7); format: in vivo; details: 1 mg intraarticular
Method: (§1) Human patients experiencing osteoarthritic knee joint pain were subjected to two different protocols for intraarticular administration of trans-capsaicin. Temporary pain expected due to administration of capsaicin was analyzed, along with the intraarticular temperature of the knee joint and the temperature of the patient's skin in the area to be cooled.
(§2) One of the protocols utilized a Breg Knee WrapOn Polar Pad (as illustrated in FIG. 1) that utilizes circulating ice-water to achieve cooling, where the pad is placed on skin surrounding the knee in order to cool the knee joint. The other protocol utilized ice-pack cooling, in which the patient's knee was wrapped with a stockinette and then the ice pack was positioned on top of the stockinette so that the ice pack is positioned over the patient's patella to thereby cool the knee joint. The ice pack was a LEADSTAR pain relief reusable cold therapy ice pack (size=6 inches). A temperature probe was placed into the intraarticular space of the patient's knee joint to measure intraarticular temperature of the knee joint. A temperature probe was also placed on the skin in the area to be cooled in order to measure skin temperature in the area to be cooled.
Five human patients suffering from moderate to severe painful bilateral knee osteoarthritis were recruited for this study evaluating the impact that cooling protocol has on the magnitude of temporary pain experienced by the patient due to administration of capsaicin. […] Patients that participated in the study passed the following screening criteria and meet the patient inclusion and exclusion criteria are set forth below. As part of patient screening, patients received an intradermal injection of 100 μL (100 μg) capsaicin into the non-dominant volar forearm. To be eligible to enter the study, patients were able to tolerate the capsaicin injection. Screening patients rated the pain from capsaicin injection at 5, 10, 20, and 30 minutes after injection using a 0-10 Numerical Pain Rating Scale, where “0” equals no pain and “10” equals worst possible pain.
as §2, with “ice pack (having a surface for application to the patient, wherein said surface has a diameter of approximately six inches) is positioned” for “ice pack is positioned”, “knee joint. A temperature” for “knee joint. The ice pack was a LEADSTAR pain relief reusable cold therapy ice pack (size=6 inches). A temperature”, “knee joint. At the discretion of the physician performing the procedure, in order to reduce discomfort for the patient, the protocol authorized the physician to instill a volume of 1-2 cc of 2% w/w lidocaine (without epinephrine) into the skin and subcutaneous tissue of the knee at the site of intra-articular probe insertion. A temperature” for “knee joint. A temperature”
One the first day of the study, patients were randomized so that (i) three patients receiving cooling of the knee joint using the Breg Knee WrapOn Polar Pad and (ii) two patients will receive ice-pack cooling over the patella as set forth above. Patients were subjected to the following procedure: • Placement of intraarticular temperature probe and skin temperature probe. […]

[2] = system: human patients with knee osteoarthritis; test: Procedure pain (NPRS) due to intraarticular trans-capsaicin, Breg pad vs Elasto-Gel wrap cooling (Example 8); format: in vivo; details: four patients (Example 8), 1 mg intraarticular
Method: as §1
One of the protocols utilized a Breg Knee WrapOn Polar Pad (as illustrated in FIG. 1) that utilizes circulating ice-water to achieve cooling, where the pad is placed on skin surrounding the knee in order to cool the knee joint. The other protocol utilized an Elasto-Gel All Purpose Therapy Wrap measuring 6 inches by 24 inches in size, in order to cool the knee joint. A temperature probe was placed into the intraarticular space of the patient's knee joint to measure intraarticular temperature of the knee joint. A temperature probe was also placed on the skin in the area to be cooled in order to measure skin temperature in the area to be cooled.
Experimental procedure used was the same as described in Example 8 herein, except that an Elasto-Gel All Purpose Therapy Wrap measuring 6 inches by 24 inches in size was used to cool the knee joint, in lieu of the ice pack. The Elasto-Gel All Purpose Therapy Wrap was removed from a freezer (approximately 0° F.) just prior to use.

## COc1cc(CNC(=O)CCCCC=CC(C)C)ccc1O [trans-capsaicin, N-[(4-hydroxy-3-methoxyphenyl)methyl]-8-methylnon-6-enamide]
[1]; Ice Pack cooling, 20 min, all five patients (Example 7)
  Knee Pain (NPRS): 0.4 (+/−0.5)
[1]; Ice Pack cooling, 20 min, four patients (Example 7)
  Knee Pain (NPRS): 0.5 (+/−0.6)
[1]; Ice Pack cooling, 30 min, all five patients (Example 7)
  Knee Pain (NPRS): 0.3 (+/−0.5)
[1]; Ice Pack cooling, 30 min, four patients (Example 7)
  Knee Pain (NPRS): 0.3 (+/−0.6)
[1]; Ice Pack cooling, 40 min, all five patients (Example 7)
  Knee Pain (NPRS): 0.0
[1]; Ice Pack cooling, 40 min, four patients (Example 7)
  Knee Pain (NPRS): 0.0
[1]; Ice Pack cooling, 50 min, all five patients (Example 7)
  Knee Pain (NPRS): 0.3 (+/−0.5)
[1]; Ice Pack cooling, 50 min, four patients (Example 7)
  Knee Pain (NPRS): 0.3 (+/−0.5)
[1]; Ice Pack cooling, 70 min, all five patients (Example 7)
  Knee Pain (NPRS): 7.3 (+/−1.9)
[1]; Ice Pack cooling, 70 min, four patients (Example 7)
  Knee Pain (NPRS): 7.3 (+/−1.9)
[1]; Ice Pack cooling, 80 min, all five patients (Example 7)
  Knee Pain (NPRS): 5.4 (+/−3.7)
[1]; Ice Pack cooling, 80 min, four patients (Example 7)
  Knee Pain (NPRS): 6.8 (+/−2.5)
[1]; Ice Pack cooling, 90 min, all five patients (Example 7)
  Knee Pain (NPRS): 4.0 (+/−1.6)
[1]; Ice Pack cooling, 90 min, four patients (Example 7)
  Knee Pain (NPRS): 4.3 (+/−1.7)
[1]; Ice Pack cooling, 100 min, all five patients (Example 7)
  Knee Pain (NPRS): 3.2 (+/−1.6)
[1]; Ice Pack cooling, 100 min, four patients (Example 7)
  Knee Pain (NPRS): 3.5 (+/−1.7)
[1]; Ice Pack cooling, 110 min, all five patients (Example 7)
  Knee Pain (NPRS): 2.4 (+/−2.1)
[1]; Ice Pack cooling, 110 min, four patients (Example 7)
  Knee Pain (NPRS): 2.8 (+/−2.2)
[1]; Ice Pack cooling, 120 min, all five patients (Example 7)
  Knee Pain (NPRS): 1.8 (+/−1.3)
[1]; Ice Pack cooling, 120 min, four patients (Example 7)
  Knee Pain (NPRS): 2.0 (+/−1.4)
[1]; Ice Pack cooling, 130 min, all five patients (Example 7)
  Knee Pain (NPRS): 2.0 (+/−1.0)
[1]; Ice Pack cooling, 130 min, four patients (Example 7)
  Knee Pain (NPRS): 2.3 (+/−1.0)
[1]; Ice Pack cooling, 140 min, all five patients (Example 7)
  Knee Pain (NPRS): 1.8 (+/−1.1)
[1]; Ice Pack cooling, 140 min, four patients (Example 7)
  Knee Pain (NPRS): 1.8 (+/−1.3)
[1]; Ice Pack cooling, 150 min, all five patients (Example 7)
  Knee Pain (NPRS): 1.4 (+/−0.9)
[1]; Ice Pack cooling, 150 min, four patients (Example 7)
  Knee Pain (NPRS): 1.3 (+/−1.0)
[1]; Ice Pack cooling, 160 min, all five patients (Example 7)
  Knee Pain (NPRS): 1.0 (+/−1.4)
[1]; Ice Pack cooling, 160 min, four patients (Example 7)
  Knee Pain (NPRS): 2.0
[1]; Ice Pack cooling, 170 min, all five patients (Example 7)
  Knee Pain (NPRS): 0.5 (+/−0.7)
[1]; Ice Pack cooling, 170 min, four patients (Example 7)
  Knee Pain (NPRS): 1.0
[1]; Ice Pack cooling, 180 min, all five patients (Example 7)
  Knee Pain (NPRS): 7.0
[1]; Ice Pack cooling, 180 min, four patients (Example 7)
  Knee Pain (NPRS): 7.0
[1]; Ice Pack cooling, 190 min, all five patients (Example 7)
  Knee Pain (NPRS): 2.0
[1]; Ice Pack cooling, 190 min, four patients (Example 7)
  Knee Pain (NPRS): 2.0
[1]; Ice Pack cooling, Baseline, all five patients (Example 7)
  Knee Pain (NPRS): 1.0 (+/−2.2)
[1]; Ice Pack cooling, Baseline, four patients (Example 7)
  Knee Pain (NPRS): 1.3 (+/−2.5)
[1]; Standard Cooling Device (Breg pad), 20 min, all five patients (Example 7)
  Knee Pain (NPRS): 1.0 (+/−1.7)
[1]; Standard Cooling Device (Breg pad), 20 min, four patients (Example 7)
  Knee Pain (NPRS): 1.3 (+/−1.9)
[1]; Standard Cooling Device (Breg pad), 30 min, all five patients (Example 7)
  Knee Pain (NPRS): 1.2 (+/−1.1)
[1]; Standard Cooling Device (Breg pad), 30 min, four patients (Example 7)
  Knee Pain (NPRS): 1.3 (+/−1.3)
[1]; Standard Cooling Device (Breg pad), 50 min, all five patients (Example 7)
  Knee Pain (NPRS): 0.8 (+/−0.8)
[1]; Standard Cooling Device (Breg pad), 50 min, four patients (Example 7)
  Knee Pain (NPRS): 1.0 (+/−0.8)
[1]; Standard Cooling Device (Breg pad), 70 min, all five patients (Example 7)
  Knee Pain (NPRS): 5.0 (+/−2.9)
[1]; Standard Cooling Device (Breg pad), 70 min, four patients (Example 7)
  Knee Pain (NPRS): 4.0 (+/−2.2)
[1]; Standard Cooling Device (Breg pad), 80 min, all five patients (Example 7)
  Knee Pain (NPRS): 4.0 (+/−1.4)
[1]; Standard Cooling Device (Breg pad), 80 min, four patients (Example 7)
  Knee Pain (NPRS): 3.8 (+/−1.5)
[1]; Standard Cooling Device (Breg pad), 90 min, all five patients (Example 7)
  Knee Pain (NPRS): 2.8 (+/−1.6)
[1]; Standard Cooling Device (Breg pad), 90 min, four patients (Example 7)
  Knee Pain (NPRS): 2.5 (+/−1.7)
[1]; Standard Cooling Device (Breg pad), 100 min, all five patients (Example 7)
  Knee Pain (NPRS): 2.0 (+/−1.4)
[1]; Standard Cooling Device (Breg pad), 100 min, four patients (Example 7)
  Knee Pain (NPRS): 1.8 (+/−1.5)
[1]; Standard Cooling Device (Breg pad), 110 min, all five patients (Example 7)
  Knee Pain (NPRS): 1.2 (+/−0.8)
[1]; Standard Cooling Device (Breg pad), 110 min, four patients (Example 7)
  Knee Pain (NPRS): 1.3 (+/−1.0)
[1]; Standard Cooling Device (Breg pad), 120 min, all five patients (Example 7)
  Knee Pain (NPRS): 1.0 (+/−0.7)
[1]; Standard Cooling Device (Breg pad), 120 min, four patients (Example 7)
  Knee Pain (NPRS): 1.0 (+/−0.8)
[1]; Standard Cooling Device (Breg pad), 130 min, all five patients (Example 7)
  Knee Pain (NPRS): 0.6 (+/−0.5)
[1]; Standard Cooling Device (Breg pad), 130 min, four patients (Example 7)
  Knee Pain (NPRS): 0.8 (+/−0.5)
[1]; Standard Cooling Device (Breg pad), 140 min, all five patients (Example 7)
  Knee Pain (NPRS): 1.2 (+/−0.8)
[1]; Standard Cooling Device (Breg pad), 140 min, four patients (Example 7)
  Knee Pain (NPRS): 1.0 (+/−0.8)
[1]; Standard Cooling Device (Breg pad), 150 min, all five patients (Example 7)
  Knee Pain (NPRS): 1.2 (+/−1.1)
[1]; Standard Cooling Device (Breg pad), 150 min, four patients (Example 7)
  Knee Pain (NPRS): 1.3 (+/−1.3)
[1]; Standard Cooling Device (Breg pad), Baseline, all five patients (Example 7)
  Knee Pain (NPRS): 1.8 (+/−2.4)
[1]; Standard Cooling Device (Breg pad), Baseline, four patients (Example 7)
  Knee Pain (NPRS): 2.0 (+/−2.7)
[2]; Ice-Gel Pack (Elasto-Gel wrap), 20 min
  Knee Pain (NPRS): 0.8 (+/−0.5)
[2]; Ice-Gel Pack (Elasto-Gel wrap), 30 min
  Knee Pain (NPRS): 0.5 (+/−0.6)
[2]; Ice-Gel Pack (Elasto-Gel wrap), 50 min
  Knee Pain (NPRS): 0.8 (+/−1.0)
[2]; Ice-Gel Pack (Elasto-Gel wrap), 70 min
  Knee Pain (NPRS): 4.8 (+/−3.2)
[2]; Ice-Gel Pack (Elasto-Gel wrap), 80 min
  Knee Pain (NPRS): 4.3 (+/−3.0)
[2]; Ice-Gel Pack (Elasto-Gel wrap), 90 min
  Knee Pain (NPRS): 3.0 (+/−1.8)
[2]; Ice-Gel Pack (Elasto-Gel wrap), 100 min
  Knee Pain (NPRS): 2.8 (+/−1.5)
[2]; Ice-Gel Pack (Elasto-Gel wrap), 110 min
  Knee Pain (NPRS): 2.8 (+/−2.1)
[2]; Ice-Gel Pack (Elasto-Gel wrap), 120 min
  Knee Pain (NPRS): 4.5 (+/−3.3)
[2]; Ice-Gel Pack (Elasto-Gel wrap), 130 min
  Knee Pain (NPRS): 3.0 (+/−1.4)
[2]; Ice-Gel Pack (Elasto-Gel wrap), Baseline
  Knee Pain (NPRS): 1.0 (+/−0.8)
[2]; Standard Cooling Device (Breg pad), 20 min
  Knee Pain (NPRS): 0.5 (+/−0.6)
[2]; Standard Cooling Device (Breg pad), 30 min
  Knee Pain (NPRS): 0.5 (+/−0.6)
[2]; Standard Cooling Device (Breg pad), 50 min
  Knee Pain (NPRS): 0.8 (+/−1.0)
[2]; Standard Cooling Device (Breg pad), 70 min
  Knee Pain (NPRS): 2.5 (+/−3.7)
[2]; Standard Cooling Device (Breg pad), 80 min
  Knee Pain (NPRS): 2.5 (+/−3.0)
[2]; Standard Cooling Device (Breg pad), 90 min
  Knee Pain (NPRS): 2.5 (+/−2.4)
[2]; Standard Cooling Device (Breg pad), 100 min
  Knee Pain (NPRS): 1.8 (+/−1.5)
[2]; Standard Cooling Device (Breg pad), 110 min
  Knee Pain (NPRS): 1.8 (+/−1.5)
[2]; Standard Cooling Device (Breg pad), 120 min
  Knee Pain (NPRS): 1.3 (+/−1.3)
[2]; Standard Cooling Device (Breg pad), 130 min
  Knee Pain (NPRS): 1.5 (+/−1.0)
[2]; Standard Cooling Device (Breg pad), Baseline
  Knee Pain (NPRS): 0.5 (+/−0.6)
